Data from patent US8822526B2, “Synergistic pharmaceutical combination for the treatment of cancer” (Piramal Enterprises Limited, priority 2007, dated 2014).

Tests used:
[1] = test system: COX-2; assay: Western blot analysis using COX-2 antibody; assay type: in vivo, human; details: H-460 tumor xenograft; FIG. 9
Excerpt: FIG. 9 indicates western blot analysis using COX-2 antibody.
Therefore, NFκB mediated inhibition of COX-2 by the compound A could be involved in suppressing tumor growth and doxorubicin induced chemoresistance in human non-small cell lung carcinoma (H-460) tumor xenograft.

[2] = test system: human non-small cell lung carcinoma H-460; assay: Analysis of cell cycle distribution and flow cytometry (sub G1 apoptosis); assay type: cell-based
Procedure: The human non-small cell lung carcinoma H-460 was seeded in 25 mm^3 tissue culture flasks. […] The control cells were left untreated for 96 hours or 120 hours. Both detached and adherent cells were harvested at different time points. The cells were washed twice with approximately 5 mL of PBS with centrifugation at 1000 rpm for 10 minutes. The cells were re-suspended in 500 μL of PBS and fixed in 500 μL ice-cold 70% ethanol. The fixed cells were incubated at room temperature for 30 minutes, spun at 1000 rpm for 10 minutes. To the cell pellet 1 mL of chilled 70% ethanol was added and the cell pellet was then kept in fridge till further analysis. Cells were washed twice with PBS to remove fixative and re-suspended in 250 μL PBS. To this 50 μL of propidium iodide (4 mg/mL in PBS) and 12.5 μL Rnase A (1 mg/mL) was added. After incubation at 37° C. for 30 minutes, cells were analyzed using flow cytometry.
A Becton Dickinson FACS Calibur flow cytometer was used in accordance with the manufacturer's recommendations. The argon ion laser set at 488 nm was used as an excitation source. Cells with DNA content between 2n and 4n were designated as being in G1, S and G2/M phases of the cell cycle, as defined by the level of red fluorescence. […] The number of cells in each cell cycle compartment was expressed as a percentage of the total number of cells present
About 1-2×10^6 cells were seeded in a tissue culture flask for the treatment groups. The assay protocol was as mentioned above in “analysis of cell cycle distribution and flow cytometry”. The cell cycle was divided in four parts, which are represented in the FIG. 1 as M1, M2, M3 and M4. M1 corresponds to the G1 phase, M2 to the S phase, M3 to the G2-M phase and M4 to the sub G1 phase, which represents the cells undergoing apoptosis.
About 1-2×10^6 cells were seeded in a tissue culture flask for the treatment groups. The assay protocol was as mentioned above in “analysis of cell cycle distribution and flow cytometry”. The cell cycle was divided in four parts, which are represented in the figure as M1, M2, M3 and M4. M1 corresponds to the G1 phase, M2 to the S phase, M3 to the G2-M phase and M4 to the sub G1 phase, which represents the cells undergoing apoptosis.

[3] = test system: human pancreatic (Panc-1) cell line; assay: In vitro cytotoxicity assay (MTS); assay type: cell-based
[4] = test system: cyclin D1; assay: Western blot analysis; assay type: cell-based, human; details: H-460; doxorubicin 100 nM 24 hours; compound A 1200 nM 96 hours; combination sequential; FIG. 6
Procedure: (§1) At the end of the treatment period cells were lysed and protein content of the lysate was estimated using the Bradford reagent. 40 μg of protein was loaded on SDS-PAGE and transferred on PVDF membrane. The membranes were probed with p53, Bax, Bcl-2, cyclin D1, Cdk1 and actin antibodies. The primary antibody were detected with horseradish […] secondary antibody and subjected to west pico chemiluminescence reagents.
(§2) Equal amount of protein was loaded in the four lanes. The different samples loaded in the wells are described in the figure legend. […] This correlates with the increased apoptosis seen in the combination treatment in FACS analysis. The pro-apoptotic protein Bax is slightly up regulated with respect to control in all treatment samples. […] Cdk1-B1 is an initiator of mitosis. The deregulation of this enzyme leads to tumorigenesis.

[5] = test system: Cdk1; assay: Western blot analysis; assay type: cell-based, human; details: H-460; doxorubicin 100 nM 24 hours; compound A 1200 nM 96 hours; combination sequential; FIG. 6
Procedure: as §1, §2

[6] = test system: pancreatic cells (Panc-1); assay: Analysis of cell cycle distribution and flow cytometry (sub G1 apoptosis); assay type: cell-based, human; details: FIG. 3: 70 nM gemcitabine alone (24 hours); 300 nM compound A alone (72 hours); combination 70 nM gemcitabine (24 hours) followed by 300 nM compound A (72 hours)
[7] = test system: NCI-H460/R; details: J. Chemother., 2006 February; 18(1) 66-73; cited from earlier work
[8] = FIG. 1: 200 nM doxorubicin alone (24 hours), 800 nM compound A alone (72 hours), combination 200 nM doxorubicin (24 hours) followed by 800 nM compound A (72 hours)
[9] = FIG. 2: 100 nM doxorubicin alone (24 hours), 1200 nM compound A alone (96 hours), combination 100 nM doxorubicin (24 hours) followed by 1200 nM compound A (96 hours)

SMILES	COX-2 levels (western blot) [1]	apoptosis (sub G1 phase) [2, 8]	apoptosis (sub G1 phase) [2, 9]	IC30 concentration after 48 hours treatment ([3]; Panc-1 cells, 48 hours treatment)	% Cytotoxicity ([3]; complete medium 24 hours, then compound A 300 nM 72 hours)	Cyclin D1 levels (western blot) [4]	Cdk1 levels (western blot) [5]	apoptosis (sub G1 phase) [6]	resistance of NCI-H460/R to doxorubicin [7]
CN1CC[C@@H](c2c(O)cc(O)c3c(=O)cc(-c4ccccc4Cl)oc23)[C@@H]1CO.Cl [Compound A, (+)-trans-2-(2-Chloro-phenyl)-5,7-dihydroxy-8-(2-hydroxymethyl-1-methyl-pyrrolidin-3-yl)-chromen-4-one hydrochloride]	low levels of COX-2	10%	32%	~300 nM	34%	slight reduction	levels equal to control	4.3%	–
COc1cccc2c1C(=O)c1c(O)c3c(c(O)c1C2=O)C[C@@](O)(C(=O)CO)C[C@@H]3O[C@H]1C[C@H](N)[C@H](O)[C@H](C)O1 [Doxorubicin]	strongly induced COX-2	10%	3%	–	–	slight reduction	significantly induces Cdk1 levels	–	96.2 fold
